The source made the active and inactive calls.
Legend:
[1] = Permeability of the compound at pH 7.4 by PAMPA; format: ADME; conditions: read-out: permeability
Mus musculus [2] = organism: Mus musculus; assay: Reduction in mechanoreceptor-mediated afferent transmission in mouse sural nerve assessed as decrease in mechanically elicited afferent firing at 10 to 30 uM measured at 20 mins post dose at 1.6 to 980 mN threshold pressure; format: functional, tissue-based
Mus musculus [3] = assay: Analgesic activity in CD1 mouse model of formalin-induced nociception assessed as reduction in formalin-evoked paw flinching/licking response during first phase at 30 mg/kg, ip pretreated for 30 mins followed by formalin treatment and measured during first 5 mins post formalin injection; format: functional, organism-based
[4] = target: Sodium channel protein type 3 subunit alpha (Homo sapiens, UniProt Q9NY46); assay: Inhibition of human Nav1.3 expressed in HEK293 cells after 600 secs at -60 mV holding potential by ion works barracuda population patch clamp method; format: cell-based
[5] = target: Sodium channel protein type 9 subunit alpha (Homo sapiens, UniProt Q15858); assay: Inhibition of recombinant human Nav1.7 expressed in HEK293 cells at -70 mV holding potential by patch clamp electrophysiology method; format: cell-based
Sodium channel protein type 9 subunit alpha, sequence (Q15858 whole entry): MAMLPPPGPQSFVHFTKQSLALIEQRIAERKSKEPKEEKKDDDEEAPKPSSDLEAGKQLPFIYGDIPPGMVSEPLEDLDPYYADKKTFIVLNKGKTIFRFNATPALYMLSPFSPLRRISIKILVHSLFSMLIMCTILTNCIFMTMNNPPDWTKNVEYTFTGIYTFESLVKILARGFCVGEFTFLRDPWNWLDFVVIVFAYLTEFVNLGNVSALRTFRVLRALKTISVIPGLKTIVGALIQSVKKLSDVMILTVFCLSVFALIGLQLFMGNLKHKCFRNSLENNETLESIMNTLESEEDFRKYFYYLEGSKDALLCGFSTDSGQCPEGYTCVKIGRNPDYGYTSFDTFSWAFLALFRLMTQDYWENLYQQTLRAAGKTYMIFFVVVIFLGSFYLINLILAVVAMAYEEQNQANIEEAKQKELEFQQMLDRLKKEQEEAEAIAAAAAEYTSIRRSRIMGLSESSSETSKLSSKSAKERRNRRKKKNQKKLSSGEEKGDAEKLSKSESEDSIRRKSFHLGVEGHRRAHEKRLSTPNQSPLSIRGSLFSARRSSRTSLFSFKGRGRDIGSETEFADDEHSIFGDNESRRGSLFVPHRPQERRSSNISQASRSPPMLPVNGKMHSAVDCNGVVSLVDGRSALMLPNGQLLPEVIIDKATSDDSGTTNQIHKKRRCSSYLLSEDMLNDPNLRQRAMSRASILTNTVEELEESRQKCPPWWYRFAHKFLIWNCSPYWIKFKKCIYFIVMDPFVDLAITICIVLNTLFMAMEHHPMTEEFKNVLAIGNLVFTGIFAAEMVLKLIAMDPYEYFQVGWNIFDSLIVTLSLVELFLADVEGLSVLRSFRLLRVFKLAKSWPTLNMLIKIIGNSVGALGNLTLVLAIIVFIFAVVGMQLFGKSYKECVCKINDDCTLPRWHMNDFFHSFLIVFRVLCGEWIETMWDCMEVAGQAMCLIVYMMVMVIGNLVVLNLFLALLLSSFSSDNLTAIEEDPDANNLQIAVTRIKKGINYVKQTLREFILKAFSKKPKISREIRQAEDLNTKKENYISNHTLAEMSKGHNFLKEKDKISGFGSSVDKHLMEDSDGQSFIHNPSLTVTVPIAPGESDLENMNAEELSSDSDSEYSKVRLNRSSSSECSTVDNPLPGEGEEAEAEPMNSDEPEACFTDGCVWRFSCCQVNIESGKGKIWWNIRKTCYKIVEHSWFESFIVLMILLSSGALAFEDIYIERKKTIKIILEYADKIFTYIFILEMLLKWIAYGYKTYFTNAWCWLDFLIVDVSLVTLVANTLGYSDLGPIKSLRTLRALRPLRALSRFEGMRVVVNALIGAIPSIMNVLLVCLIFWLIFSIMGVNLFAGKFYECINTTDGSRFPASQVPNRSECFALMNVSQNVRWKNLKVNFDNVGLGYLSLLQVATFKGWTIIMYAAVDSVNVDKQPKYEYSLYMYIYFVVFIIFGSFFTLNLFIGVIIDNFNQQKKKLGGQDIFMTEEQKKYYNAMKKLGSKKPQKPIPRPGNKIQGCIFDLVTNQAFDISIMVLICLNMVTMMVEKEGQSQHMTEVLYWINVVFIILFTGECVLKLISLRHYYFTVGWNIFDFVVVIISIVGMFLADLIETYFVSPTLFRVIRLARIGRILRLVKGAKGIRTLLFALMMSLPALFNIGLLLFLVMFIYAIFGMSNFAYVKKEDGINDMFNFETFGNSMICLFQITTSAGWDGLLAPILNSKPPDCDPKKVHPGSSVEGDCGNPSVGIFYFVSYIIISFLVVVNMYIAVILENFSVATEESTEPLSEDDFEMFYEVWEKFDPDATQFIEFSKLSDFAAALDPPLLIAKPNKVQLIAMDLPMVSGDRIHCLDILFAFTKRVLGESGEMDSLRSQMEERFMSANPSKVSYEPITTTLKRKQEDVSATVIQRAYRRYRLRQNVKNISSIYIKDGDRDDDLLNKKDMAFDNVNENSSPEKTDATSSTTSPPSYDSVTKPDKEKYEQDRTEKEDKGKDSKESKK

[6] = target: Sodium channel protein type 4 subunit alpha (Homo sapiens, UniProt P35499); assay: Inhibition of human Nav1.4 expressed in HEK293 cells after 600 secs at -60 mV holding potential by ion works barracuda population patch clamp method; format: cell-based
[7] = Unbound plasma concentration in CD1 mouse model of chronic constriction injury-induced cold allodynia at 10 mg/kg, ip dosed at 5 weeks post surgery and measured 60 mins post dose; format: ADME, organism-based; conditions: in vivo, 1 h
[8] = Toxicity in CD1 mouse model of formalin-induced nociception assessed as hypothermia at 30 mg/kg, ip; format: organism-based; conditions: in vivo
[9] = Permeability from basolateral to apical side in human Caco2 cells; format: ADME, cell-based; conditions: Caco-2, read-out: permeability
[10] = Unbound drug level in DRG neurons of CD1 mouse model of formalin-induced nociception at 30 mg/kg, ip; format: ADME, organism-based, DRG neuron; conditions: in vivo
Cytochrome P450 2B6 [11] = target: T1, Cytochrome P450 2B6 (Homo sapiens, UniProt P20813); assay: Time-dependant inhibition of CYP2B6 in human liver microsomes; format: ADME
T1 sequence (P20813 whole entry): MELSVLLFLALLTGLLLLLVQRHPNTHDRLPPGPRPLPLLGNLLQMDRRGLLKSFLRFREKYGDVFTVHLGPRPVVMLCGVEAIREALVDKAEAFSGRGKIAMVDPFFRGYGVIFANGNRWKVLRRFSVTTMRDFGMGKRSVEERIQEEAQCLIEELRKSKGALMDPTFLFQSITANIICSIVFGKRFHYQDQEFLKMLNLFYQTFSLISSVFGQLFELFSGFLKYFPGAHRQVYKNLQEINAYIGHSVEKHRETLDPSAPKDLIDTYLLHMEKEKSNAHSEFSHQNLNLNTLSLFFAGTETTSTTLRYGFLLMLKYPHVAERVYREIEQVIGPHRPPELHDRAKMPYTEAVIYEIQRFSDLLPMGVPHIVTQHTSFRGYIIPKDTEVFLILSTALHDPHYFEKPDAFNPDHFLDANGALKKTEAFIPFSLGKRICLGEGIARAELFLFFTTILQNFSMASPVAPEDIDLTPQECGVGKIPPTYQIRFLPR

[12] = Metabolic stability in rat liver microsomes assessed as parent compound remaining at 0.5 uM after 10 mins; format: ADME, Microsome; conditions: read-out: Stability
[13] = target: Sodium channel protein type 5 subunit alpha (Homo sapiens, UniProt Q14524); assay: Inhibition of human Nav1.5 expressed in HEK293 cells after 600 secs at -50 mV holding potential by ion works barracuda population patch clamp method; format: cell-based
Cytochrome P450 2D6 = Cytochrome P450 2D6 (Homo sapiens, UniProt P10635); assay: Time-dependant inhibition of CYP2D6 in human liver microsomes; format: ADME
Cytochrome P450 2D6, sequence (P10635 whole entry): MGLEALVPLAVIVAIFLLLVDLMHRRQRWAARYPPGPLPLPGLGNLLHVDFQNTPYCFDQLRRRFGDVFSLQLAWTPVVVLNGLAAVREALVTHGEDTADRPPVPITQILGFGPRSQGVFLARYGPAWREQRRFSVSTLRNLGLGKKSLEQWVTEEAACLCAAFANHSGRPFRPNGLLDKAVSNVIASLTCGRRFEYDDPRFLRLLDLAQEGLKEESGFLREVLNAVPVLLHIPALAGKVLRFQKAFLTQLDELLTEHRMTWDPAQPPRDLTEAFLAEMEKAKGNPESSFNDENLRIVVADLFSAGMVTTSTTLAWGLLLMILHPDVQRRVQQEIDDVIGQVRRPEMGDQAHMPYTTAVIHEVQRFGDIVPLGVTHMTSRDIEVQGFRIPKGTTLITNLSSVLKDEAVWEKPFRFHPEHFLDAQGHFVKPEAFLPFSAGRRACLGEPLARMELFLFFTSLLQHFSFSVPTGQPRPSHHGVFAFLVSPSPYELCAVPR

[14] = Toxicity in CD1 mouse model of formalin-induced nociception assessed as prostration or sedation at 30 mg/kg, ip; format: organism-based; conditions: in vivo
[15] = Plasma concentration in CD1 mouse model of chronic constriction injury-induced cold allodynia at 10 mg/kg, ip dosed at 5 weeks post surgery and measured 60 mins post dose; format: ADME, organism-based
Mus musculus [16] = assay: Analgesic activity in CD1 mouse model of formalin-induced nociception assessed as reduction in formalin-evoked paw flinching/licking response during second phase at 3 to 10 mg/kg, ip pretreated for 30 mins followed by formalin treatment and measured during 15 to 45 mins post formalin injection; format: functional, organism-based
Cytochrome P450 2B6 [17] = target: T1, Cytochrome P450 2B6; assay: Inhibition of CYP2B6 in human liver microsomes; format: ADME
Cytochrome P450 2C9 = Cytochrome P450 2C9 (Homo sapiens, UniProt P11712); assay: Time-dependant inhibition of CYP2C9 in human liver microsomes; format: ADME
Cytochrome P450 2C9, sequence (P11712 whole entry): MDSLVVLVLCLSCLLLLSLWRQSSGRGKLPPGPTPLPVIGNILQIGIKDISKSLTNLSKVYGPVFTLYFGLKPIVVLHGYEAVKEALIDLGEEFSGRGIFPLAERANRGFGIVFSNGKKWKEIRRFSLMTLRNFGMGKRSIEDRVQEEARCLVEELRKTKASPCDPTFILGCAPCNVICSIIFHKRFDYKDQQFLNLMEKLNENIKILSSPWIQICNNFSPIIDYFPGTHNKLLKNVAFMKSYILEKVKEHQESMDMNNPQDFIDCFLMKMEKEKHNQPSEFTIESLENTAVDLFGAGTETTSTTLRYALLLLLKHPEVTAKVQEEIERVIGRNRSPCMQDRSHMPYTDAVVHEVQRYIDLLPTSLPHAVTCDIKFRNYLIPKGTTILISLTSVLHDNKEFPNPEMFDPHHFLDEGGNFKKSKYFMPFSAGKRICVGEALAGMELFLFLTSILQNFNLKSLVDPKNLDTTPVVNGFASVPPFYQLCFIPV

[18] = target: Sodium channel protein type 2 subunit alpha (Homo sapiens, UniProt Q99250); assay: Inhibition of human Nav1.2 expressed in HEK293 cells after 600 secs at -60 mV holding potential by ion works barracuda population patch clamp method; format: cell-based
[19] = Unbound plasma concentration in CD1 mouse model of formalin-induced nociception at 30 mg/kg, ip; format: ADME, organism-based; conditions: in vivo
[20] = Plasma concentration in CD1 mouse model of chronic constriction injury-induced cold allodynia at 30 mg/kg, ip dosed at 5 weeks post surgery and measured 60 mins post dose; format: ADME, organism-based
[21] = Plasma concentration in CD1 mouse model of CFA-induced thermal hyperalgesia at 3 to 30 mg/kg, ip; format: ADME, organism-based; conditions: in vivo
Cytochrome P450 3A4 = Cytochrome P450 3A4 (Homo sapiens, UniProt P08684); assay: Inhibition of CYP3A4 in human liver microsomes; format: ADME
Cytochrome P450 3A4, sequence (P08684 whole entry): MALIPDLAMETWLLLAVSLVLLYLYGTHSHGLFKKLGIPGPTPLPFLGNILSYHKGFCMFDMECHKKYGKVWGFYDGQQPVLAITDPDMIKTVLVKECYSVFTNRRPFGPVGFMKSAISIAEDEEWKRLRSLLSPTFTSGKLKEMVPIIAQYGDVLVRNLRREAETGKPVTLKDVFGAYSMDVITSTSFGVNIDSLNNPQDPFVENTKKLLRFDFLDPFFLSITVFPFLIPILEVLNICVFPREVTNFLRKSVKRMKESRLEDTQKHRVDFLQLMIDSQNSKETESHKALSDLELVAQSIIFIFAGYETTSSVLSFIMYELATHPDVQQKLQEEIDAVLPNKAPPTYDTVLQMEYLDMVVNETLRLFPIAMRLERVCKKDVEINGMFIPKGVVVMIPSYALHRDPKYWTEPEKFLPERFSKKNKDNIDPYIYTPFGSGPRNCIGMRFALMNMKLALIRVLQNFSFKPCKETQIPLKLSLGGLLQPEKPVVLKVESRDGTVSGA

[22] = Unbound plasma concentration in CD1 mouse model of chronic constriction injury-induced cold allodynia at 3 mg/kg, ip dosed at 5 weeks post surgery and measured 60 mins post dose; format: ADME, organism-based; conditions: in vivo, 1 h
Cytochrome P450 2C19 = Cytochrome P450 2C19 (Homo sapiens, UniProt P33261); assay: Time-dependant inhibition of CYP2C19 in human liver microsomes; format: ADME
Cytochrome P450 2C19, sequence (P33261 whole entry): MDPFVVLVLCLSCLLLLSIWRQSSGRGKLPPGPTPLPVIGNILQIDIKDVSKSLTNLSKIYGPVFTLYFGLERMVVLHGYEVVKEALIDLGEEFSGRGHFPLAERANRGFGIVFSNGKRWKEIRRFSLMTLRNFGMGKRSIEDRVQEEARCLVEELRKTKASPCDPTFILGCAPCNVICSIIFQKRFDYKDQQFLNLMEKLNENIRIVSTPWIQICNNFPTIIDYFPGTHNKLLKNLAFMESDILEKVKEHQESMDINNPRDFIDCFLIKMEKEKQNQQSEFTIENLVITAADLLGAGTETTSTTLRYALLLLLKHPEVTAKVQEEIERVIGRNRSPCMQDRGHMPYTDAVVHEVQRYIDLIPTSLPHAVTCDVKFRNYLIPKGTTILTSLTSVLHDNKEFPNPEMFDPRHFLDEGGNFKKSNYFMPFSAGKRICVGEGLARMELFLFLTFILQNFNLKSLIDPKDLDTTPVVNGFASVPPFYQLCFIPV

[23] = Fraction unbound in rat DRG neurons; format: ADME
[24] = Unbound drug level in DRG neurons of CD1 mouse model of formalin-induced nociception at 30 mg/kg, po; format: ADME, organism-based, DRG neuron; conditions: in vivo
[25] = Toxicity in CD1 mouse model of formalin-induced nociception assessed as hypothermia at 30 mg/kg, po; format: organism-based; conditions: in vivo
[26] = Drug uptake in DRG neurons of CD1 mouse model of formalin-induced nociception at 30 mg/kg, po; format: ADME, organism-based, DRG neuron; conditions: in vivo, read-out: Drug uptake
[27] = Toxicity in CD1 mouse model of formalin-induced nociception assessed as prostration or sedation at 30 mg/kg, po; format: organism-based; conditions: in vivo
[28] = Unbound plasma concentration in CD1 mouse model of formalin-induced nociception at 30 mg/kg, po; format: ADME, organism-based; conditions: in vivo
Mus musculus [29] = assay: Analgesic activity in CD1 mouse model of formalin-induced nociception assessed as reduction in formalin-evoked paw flinching/licking response during first phase at 30 mg/kg, po pretreated for 30 mins followed by formalin treatment and measured during first 5 mins post formalin injection; format: functional, organism-based
Mus musculus [30] = assay: Analgesic activity in CD1 mouse model of formalin-induced nociception assessed as reduction in formalin-evoked paw flinching/licking response during second phase at 30 mg/kg, po pretreated for 30 mins followed by formalin treatment and measured during 15 to 45 mins post formalin injection; format: functional, organism-based

| Papp [1] | IC50 [5] | Papp B→A [9] | TDI (Cytochrome P450 2B6 [11]) | remaining at 10 min, 0.5 µM [12] | TDI (Cytochrome P450 2D6) | IC50 (Cytochrome P450 2B6 [17]) | TDI (Cytochrome P450 2C9) | concentration [21] | IC50 (Cytochrome P450 3A4) | TDI (Cytochrome P450 2C19) | SMILES | IC50 [13] | also measured |
| --- | --- | --- | --- | --- | --- | --- | --- | --- | --- | --- | --- | --- | --- |
| 21.6 ×10⁻⁶ cm/s | 8 nM | 16.8 ×10⁻⁶ cm/s | Not Active | 66% | Not Active | 9.7 µM | Not Active | 63 µM | > 40 µM | Not Active | CC(C)COc1ncc(-c2cn(C)c3cc(C(=O)NS(C)(=O)=O)ccc23)cc1Cl | 19 µM | Activity (Mus musculus [2]): Active; Activity (Mus musculus [3]): inactive; IC50 [4]: > 30 µM; IC50 [6]: 4.8 µM; Cp(f) [7]: 54 nM; Activity [8]: Non-Toxic; Drug uptake(free) [10]: 95 nM; Activity [14]: Non-Toxic; concentration at 1 h [15]: 27 µM; Activity (Mus musculus [16]): inactive; IC50 [18]: 16 µM; Cp(f) [19]: 118 nM; concentration at 1 h [20]: 68 µM; Cp(f) [22]: 6.6 nM |
| 16.4 ×10⁻⁶ cm/s | 25 nM | 18.6 ×10⁻⁶ cm/s | Not Active | 98% | Not Active | > 40 µM | Not Active | 38 µM | 15 µM | Not Active | CC(C)COc1ccc(-c2cn(C)c3cc(C(=O)NS(C)(=O)=O)c(F)cc23)cn1 | 16 µM | fraction unbound [23]: 0.039; Drug uptake(free) [24]: 84 nM; Activity [25]: Non-Toxic; concentration [26]: 990 nM; Activity [27]: Non-Toxic; Cp(f) [28]: 616 nM; Activity (Mus musculus [29]): inactive; Activity (Mus musculus [30]): inactive |

— ChEMBL document CHEMBL4371076 (J Med Chem, 2019)
